Legend:
ERα_LBD (GST) = ERα_LBD (GST) (Homo sapiens (Human), UniProt P03372); experiment: IC50 measurements for binding to ERα_LBD (GST), LanthaScreen TR-FRET competitive binding; details: ERα_LBD (GST) 4 nM, Fluormone ES2 Green tracer, 60 min; read-out: ERα HTRF IC50
Procedure: In vitro Assay: IC50 Measurements for binding to ERα_LBD (GST) • Final assay conditions: • 1. ERα_LBD (GST) protein: 4 nM • 2. Tb Anti-GST: 2 nM • 3. Fluormone ES2 Green tracer: 3 nM • 4. Incubation time: 60 min • 5. DMSO: 1% • 6. Assay buffer: Adding 1M DTT to Nuclear receptor Buffer K for final 5 mM DTT. • 7. ZPE: 1% DMSO • 8. HPE: 1 μM ARV_471 (positive control) • 9. LanthaScreen® TR-FRET ERα Competitive Binding Assay (ThermoFisher, #A^15887) • 100× Compound preparation
1) Cherry pick 2 μL 10 mM compound stock to column 1 of a 384 intermediate plate. • 2) Add 18 μL DMSO to column 1 to dilute compound to 1 mM. • 3) Transfer 10 μL 1 mM compound to column 1 of a LDV plate. • 2) Add 6 μl DMSO to column 2-10 of the LDV plate. • 3) Compounds undergo 3-fold serial dilution (3 μL+6 μL) in DMSO. • 4) Transfer 120 nL compound solution to assay plate. ZPE: 120 nL 100% DMSO • Procedure:
Complete nuclear receptor buffer K was prepared by adding 1 M DTT to nuclear receptor buffer K for a final concentration of 5 mM DTT. Complete nuclear receptor buffer K must be prepared fresh daily, 2X protein solution was prepared using complete nuclear receptor buffer K containing 8 nM ERα_LBD (GST) and 4 nM Tb Anti-GST. Then, 2X Fluormone ES2 Green tracer (6 nM) was prepared using complete nuclear receptor buffer K. Add 6 μL 2X Fluormone ES2 green tracer into a compound plate (PerkinElmer 6008289) by dragonfly with one-tips-addition. Subsequently, 6 μL 2× protein solution was added into the plate. The 384-well plate was mixed on a plate shaker and incubated at room temperature protected from light for 60 min. The plate was scaled with a cover to minimize evaporation. The plate was read at wavelengths of 520 nm and 495 nm. The TR-FRET ratio was calculated by dividing the emission signal at 520 nm by the emission signal at 495 nm. A binding curve was generated by plotting the emission ratio vs, the log [ligand]. To determine the IC50 value, fit the data using XL-fit for a sigmoidal dose-response.

ER in MCF-7 cells = ER in MCF-7 cells (Homo sapiens (Human), UniProt P03372); experiment: In-cell Western (ICW) ER degradation assay in MCF-7 cells; type: cell-based; details: 16 hrs treatment; for Dmax: MCF7, MCF-7, maximal ER degradation, read-out: MCF7 Dmax; for DC50: MCF-7, ER degradation, read-out: MCF7 DC50
Chain of ER in MCF-7 cells (P03372 whole entry): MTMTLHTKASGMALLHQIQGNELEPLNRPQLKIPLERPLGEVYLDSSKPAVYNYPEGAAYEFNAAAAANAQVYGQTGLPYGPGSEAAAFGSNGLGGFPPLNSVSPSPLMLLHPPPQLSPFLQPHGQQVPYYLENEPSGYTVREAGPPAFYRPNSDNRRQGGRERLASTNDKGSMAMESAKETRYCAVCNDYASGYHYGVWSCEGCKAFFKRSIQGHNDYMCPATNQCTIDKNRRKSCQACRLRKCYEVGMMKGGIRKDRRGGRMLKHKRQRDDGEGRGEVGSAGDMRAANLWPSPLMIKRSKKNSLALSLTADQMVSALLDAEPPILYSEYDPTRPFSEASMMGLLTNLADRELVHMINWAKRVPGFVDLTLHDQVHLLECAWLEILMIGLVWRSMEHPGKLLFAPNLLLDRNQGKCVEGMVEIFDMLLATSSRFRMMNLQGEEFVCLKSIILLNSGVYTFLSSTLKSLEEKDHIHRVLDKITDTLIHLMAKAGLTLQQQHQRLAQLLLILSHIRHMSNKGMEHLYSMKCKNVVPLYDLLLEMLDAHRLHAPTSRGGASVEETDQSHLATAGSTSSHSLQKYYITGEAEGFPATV

ER in T47D cells = ER in T47D cells (Homo sapiens (Human), UniProt P03372); experiment: In-cell Western (ICW) ER degradation assay in T47D cells; type: cell-based; details: 16 hrs treatment; for Dmax: maximal ER degradation, read-out: T47D Dmax; for DC50: ER degradation
Chain of ER in T47D cells (P03372 whole entry): as above

Chain of ERα_LBD (GST) (P03372 311-547): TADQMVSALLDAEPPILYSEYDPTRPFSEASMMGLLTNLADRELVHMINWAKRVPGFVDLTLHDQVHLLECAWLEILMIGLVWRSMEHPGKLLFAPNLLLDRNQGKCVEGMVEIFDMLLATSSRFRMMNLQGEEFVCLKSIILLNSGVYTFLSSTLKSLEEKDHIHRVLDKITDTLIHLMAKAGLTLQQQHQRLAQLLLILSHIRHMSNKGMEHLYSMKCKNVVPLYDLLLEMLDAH

| Compound | IC50 (ERα_LBD (GST)) | Dmax (ER in MCF-7 cells) | Dmax (ER in T47D cells) | DC50 (ER in MCF-7 cells) | DC50 (ER in T47D cells) | MCF7 Dmax (ER in MCF-7 cells; MCF-7, maximal ER degradation) |
| --- | --- | --- | --- | --- | --- | --- |
| O=C1CC[C@H](N2Cc3c(ccc4c3OC[C@H]3CN(CC5CCC6(CC5)CN(c5ccc([C@@H]7c8ccc(O)cc8CC[C@@H]7c7ccccc7)cn5)C6)CCN43)C2=O)C(=O)N1 (single isomer, unassigned) [Compound A123] | < 10 nM | > 75% | > 75% | – | – | – |
| COc1cc(N2CCC(CN3CCN4c5cc6c(cc5OC[C@@H]4C3)C(=O)N([C@H]3CCC(=O)NC3=O)C6)CC2)c(F)cc1[C@@H]1c2ccc(O)cc2CC[C@@H]1c1ccccc1 [Compound A91, (S)-3-((S)-3-((1-(2-fluoro-4-((1S,2S)-6-hydroxy-2-phenyl-1,2,3,4-tetrahydronaphthalen-1-yl)-5-methoxyphenyl)piperidin-4-yl)methyl)-8-oxo-3,4,4a,5-tetrahydro-1H-pyrazino[1′,2′: 4,5][1,4]oxazino[2,3-f]isoindol-9 (2H,8H,10H)-yl)piperidine-2,6-dione] | < 10 nM | > 75% | > 75% | < 1 nM | < 1 nM | – |
| COc1cc(N2CCC3(CC2)CC(CN2CCN4c5ccc6c(c5OC[C@H]4C2)CN([C@H]2CCC(=O)NC2=O)C6=O)C3)c(F)cc1[C@@H]1c2ccc(O)cc2CC[C@@H]1c1ccccc1 [Compound A99, (S)-3-((R)-7-((7-(2-fluoro-4-((1S,2S)-6-hydroxy-2-phenyl-1,2,3,4-tetrahydronaphthalen-1-yl)-5-methoxyphenyl)-7-azaspiro[3.5]nonan-2-yl)methyl)-1-oxo-1,3,5,5a,6,7,8,9-octahydro-2H-pyrazino[1′,2′:4,5][1,4]oxazino[2,3-e]isoindol-2-yl)piperidine-2,6-dione] | < 10 nM | > 75% | > 75% | < 1 nM | < 1 nM | – |
| COc1cc(N2CCC3(CC2)CC(CN2CCC(c4ccc(N[C@H]5CCC(=O)NC5=O)cc4)CC2)C3)c(F)cc1[C@H]1c2ccc(O)cc2CC[C@H]1c1ccccc1 (single isomer, unassigned) [Compound A32] | > 100 nM | 50 to 75% | 50 to 75% | 10 to 100 nM | 10 to 100 nM | – |
| COc1cc(N2CCC3(CC2)C[C@H](CN2CCN4c5ccc6c(c5OC[C@H]4C2)CN([C@H]2CCC(=O)NC2=O)C6=O)CO3)ccc1[C@@H]1c2ccc(O)cc2CC[C@@H]1c1ccccc1 (single isomer, unassigned) [Compound A133] | < 10 nM | > 75% | – | < 1 nM | – | – |
| (S)-3-(1′-((2-(2-fluoro-4-((1S,2S)-6-hydroxy-2-phenyl-1,2,3,4-tetrahydronaphthalen-1-yl)-5-methoxyphenyl)-2-azaspiro[3.5]nonan-7-yl)methyl)-7-oxo-5,7-dihydro-2H,6H-spiro[furo[2,3-f]isoindole-3,4′-piperidin]-6-yl)piperidine-2,6-dione [Compound A166] | < 10 nM | – | – | < 1 nM | – | B (“B”: >50 and <75%) |
| COc1cc(N2CCC3(CC2)CC(CN2CCN4c5cc6c(cc5OC[C@@H]4C2)C(=O)N([C@H]2CCC(=O)NC2=O)C6)C3)c(F)cc1[C@@H]1c2ccc(O)cc2CC[C@@H]1c1ccccc1 [Compound A101, (S)-3-((S)-3-((7-(2-fluoro-4-((1S,2S)-6-hydroxy-2-phenyl-1,2,3,4-tetrahydronaphthalen-1-yl)-5-methoxyphenyl)-7-azaspiro[3.5]nonan-2-yl)methyl)-8-oxo-1,2,3,4,4a,5,8,10-octahydro-9H-pyrazino[1′,2′: 4,5][1,4]oxazino[2,3-f]isoindol-9-yl)piperidine-2,6-dione] | < 10 nM | > 75% | – | < 1 nM | – | – |
